Entries after “also recorded” stand apart in the source; their conditions may differ.

This note sets out measurements from patent US20230310352A1, “NOVEL COMPOSITIONS AND METHODS FOR THE TREATMENT OF LUNG FIBROSIS” (LAURENT PHARMACEUTICALS INC., priority 2020, published 2023).

The subject of experiment [1] is Normal human lung fibroblast cells (NHLF cells, ATCC CRL-7000). Kind of experiment: α-SMA protein by ELISA after TGF-β1 exposure in NHLF. The conditions noted are these: TGF-β1 2 ng/mL + fenretinide 1, 2, 3, 4 μM, 3 days. Type of experiment: cell-based. The procedure:
(§1) NHLF cells were incubated for 3 days at 37° C. and treated with TGF-β1 (2 ng/mL) or TGF-β1 (2 ng/mL)+fenretinide (1, 2, 3, 4 μM). At the end of the 3 day-treatment period, media was collected in identified tubes, centrifuged at 2,000×g for 20 minutes and stored at −80° C. Cells were collected using trypsin, transferred in identified tubes and centrifuged at 1,000×g for 5 minutes. Cells were then washed twice in phosphate buffered saline (PBS) 1X prior to be resuspended in ELISA lysis buffer. α-SMA protein contents were determined using Abcam ELISA detection kit (Ab240678). The experiment was performed in quadruplicate.
On the technique in general: An ELISA detects its analyte on a solid surface through an enzyme-linked reagent.

In another experiment the test system is VEGF. In words: Mouse model of LPS-induced acute respiratory distress syndrome, BALF VEGF. Type of experiment: in vivo. The conditions noted are these: inhaled fenretinide, LPS-induced ARDS mouse model.
Experiment [2] has as its system Normal human lung fibroblast cells (NHLF cells, ATCC CRL-7000). Kind of experiment: COL1A1 mRNA transcript by qRT-PCR after TGF-β1 exposure in NHLF. Type of experiment: cell-based. The conditions noted are these: TGF-β1 2 ng/mL + fenretinide 1, 2, 3, 4 μM, 3 days. The procedure:
NHLF cells were incubated for 3 days at 37° C. and treated with TGF-β1 (2 ng/mL) or TGF-β1 (2 ng/mL)+Fenretinide (1, 2, 3, 4 μM). At the end of the 3 day-treatment period, media was removed using a vacuum pump and total RNA was isolated using the TriReagent protocol (BioShop) and cDNA was obtained by reverse transcription using the SUPERSCRIPT® VILO®. COL1A1 transcript levels were determined by qRT-PCR using the Fast SyBR Master Mix and specific probes, and quantified following the ΔΔCT, normalized to PUM-1 expression as internal control. The experiments were performed in quadruplicate.
On the technique in general: Quantitative PCR measures a nucleic acid by following its amplification.

In a further experiment the test system is human lung microtissues. Kind of experiment: Contractile force of TGF-β1 treated 3D lung microtissues (micropillar deflection). As to conditions: for contractile force, reduction vs TGF-β1 only treated condition, percentage change: Day 6. Type of experiment: cell-based. From the text:
The lung microtissue chip system used is based on bio-MEMS technology that can assemble 3D cell-populated submillimeter microtissues in arrays of polydimethylsiloxane (PDMS) microwells. In each microwell, human lung fibroblasts or epithelial cells spontaneously contract and assemble the matrix proteins, such as collagen, into microtissues that anchor on top of an array of micropillars. The flexible micropillars serve as in situ force sensors that can report the contractile force generated by the tissue.
The effect of fenretinide on the inhibition of microtissue contractile force in a preventative treatment regimen was also measured. Increased contractile force is one of the main biomechanical features associated with fibrosis progression. The spontaneous contraction force generated by individual microtissues was determined from the deflection of micropillars based on cantilever bending theory. Micropillar deflection was measured using phase contrast microscopy, by comparing the deflected position of the centroid of each pillar top to the centroid of its base. Microtissue contraction force was measured for the same batch of samples on a daily basis for each pharmacological condition. The micropillar spring constant was determined based on the actual geometry of the micropillar and the elastic modulus of the PDMS. […] In contrast, the force developed by untreated samples plateaued after 1 day at around 80 μN. […] The 4 μM fenretinide dose reduced the contractile force by Day 6 to around 70 μN, a reduction of about 38% as compared to TGF-β1 treated condition.
The effect of fenretinide 4 μM dose on the inhibition of microtissue contractile force was tested in a therapeutic treatment regimen. Fibrosis was first allowed to progress for three days under the induction of TGF-β1 (5 ng/ml) and fenretinide was then added from day 3 to day 6 to model a therapeutic treatment. […] TGF-β1 present in media for 3 days and absent for following 3 days (mean±SD, n=8). However, on day 6 as compared to day 3, fenretinide at 2 μM reduced the tissue contractility by 10%, 4 μM fenretinide by 15% and the combination of 2 μM fenretinide and 1.6 mM pirfenidone by 26%.

Experiment [3] concerns Normal human lung fibroblast cells (NHLF cells, ATCC CRL-7000). Kind of experiment: Pro-collagen 1A1 protein by ELISA after TGF-β1 exposure in NHLF. In kind it is cell-based. As to conditions: TGF-β1 2 ng/mL + fenretinide 1, 2, 3, 4 μM, 3 days. The protocol:
as §1, with “ng/mL)+Fenretinide” for “ng/mL)+fenretinide”, “2,000 g” for “2,000×g”, “1,000 g” for “1,000×g”, “PBS” for “phosphate buffered saline (PBS)”, “Pro-collagen 1A1” for “α-SMA”, “(Ab210966). Experiment” for “(Ab240678). The experiment was”

Consider `CC1=C(/C=C/C(C)=C/C=C/C(C)=C/C(=O)Nc2ccc(O)cc2)C(C)(C)CCC1` [fenretinide, 4-hydroxyphenyl retinamide], for which, in experiment [1], the “induction of fibrotic marker α-SMA protein levels (ELISA)” value is “attenuate and, at certain doses, completely abolish; also recorded: attenuates in a dose-dependent manner; also recorded: dose-dependent attenuation”. Also, the “bronchoalveolar lavage fluid (BALF) VEGF” value with VEGF was “significant increase”. Moreover, in experiment [2], the “induction of fibrotic marker COL1A1 gene expression (qRT-PCR)” value is “attenuates, in a dose-dependent manner; also recorded: dose-dependent attenuation”. In addition, the inhibition at 4 µM in the experiment with human lung microtissues (Homo sapiens, therapeutic treatment, 4 μM, read-out: inhibition of contractile force as compared to TGF-β1 only treated condition (positive control)) is 57%. Besides, the “TGF-β1-induced increase in contractile force” value in the experiment with human lung microtissues (preventative treatment, 2 μM and 4 μM) was “inhibit TGF-131-induced increase in contractile force in a dose-dependent manner”. Besides, the microtissue contractile force is listed as 80-85 μN in the experiment with human lung microtissues (preventative treatment, 2 μM, 6-day measurement (TGF-β1 only around 130 μN, untreated around 80 μN)) and “around 70 μN” in the experiment with human lung microtissues (preventative treatment, 4 μM, Day 6 (TGF-β1 only around 130 μN, untreated around 80 μN)). For the same compound, the “contractile force, reduction vs TGF-β1 only treated condition, percentage change” value is listed as “about 28%” in the experiment on human lung microtissues (preventative treatment, 2 μM); 28.0% in the experiment on human lung microtissues (preventative treatment, 2 μM, listed as Fenret); “about 38%” in the experiment on human lung microtissues (preventative treatment, 4 μM); 38.0% in the experiment with human lung microtissues (preventative treatment, 4 μM, listed as Fenret). Also, the “reduction of tissue contractility on day 6 as compared to day 3” value stood at 10% in the experiment with human lung microtissues (therapeutic treatment, 2 μM) and 15% in the experiment with human lung microtissues (therapeutic treatment, 4 μM). Further, the “contractile force, reduction vs TGF-β1 +3/−3 group on day 6, percentage change” value in the experiment on human lung microtissues (therapeutic treatment, added day 3 to day 6, 2 μM) was found to be 34%; in the experiment with human lung microtissues (therapeutic treatment, added day 3 to day 6, 2 μM, listed as Fenret), 34.0%; in the experiment on human lung microtissues (therapeutic treatment, added day 3 to day 6, 4 μM), 34%; with human lung microtissues (therapeutic treatment, added day 3 to day 6, 4 μM, listed as Fenret), 34.0%. The “induction of Pro-collagen 1A1 protein levels (ELISA)” value in experiment [3] was “attenuate and, at certain doses, completely abolish; also recorded: dose-dependent attenuation”; in experiment [3] (listed as Fenretinide), “dose-dependent attenuation”.

The inhibition is how much of the control response was suppressed.
